Experimental data published in ChEMBL document CHEMBL1201862, “PubChem BioAssay data set” (2004).
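Cells were grown in 96-well plates and exposed to each compound for 48 hours at five concentrations; endpoints were interpolated linearly between bracketing concentrations, or set to the highest concentration if not reached. Abbreviation: GI50, concentration required for 50% inhibition of growth.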 Activity calls are given as the source filed them. Rule as the data show it: active = GI50 up to about 1.1 µM and inactive = higher.

How the values were obtained:
Assay in all cases: NCI anticancer screen, dose series, 48 h
[1] = test system: HCT-116
[2] = test system: M14
[3] = test system: NCI-H226
[4] = test system: SW-620
[5] = test system: SN12C
[6] = test system: CCRF-CEM
[7] = test system: SNB-19
[8] = test system: MDA-N
[9] = test system: A498
[10] = test system: TK-10
[11] = test system: UACC-62
[12] = test system: SF-268
[13] = test system: UACC-257
[14] = test system: NCI-H460
[15] = test system: SK-MEL-28
[16] = test system: T47D
[17] = test system: OVCAR-8
[18] = test system: IGROV-1
[19] = test system: SF-539
[20] = test system: COLO 205
[21] = test system: MOLT-4
[22] = test system: Malme-3M
[23] = test system: SK-MEL-5
[24] = test system: RXF 393
[25] = test system: LOX IMVI
[26] = test system: OVCAR-4
[27] = test system: DU-145
[28] = test system: HL-60
[29] = test system: BT-549
[30] = test system: KM12
[31] = test system: SK-MEL-2
[32] = test system: 786-0
[33] = test system: A549
[34] = test system: NCI/ADR-RES
[35] = test system: MDA-MB-435
[36] = test system: HCT-15
[37] = test system: HOP-92
[38] = test system: HOP-62
[39] = test system: MCF7
[40] = test system: NCI-H23
[41] = test system: PC-3
[42] = test system: U-251
[43] = test system: HT-29
[44] = test system: SK-OV-3
[45] = test system: SR
[46] = test system: MDA-MB-231
[47] = test system: K562
[48] = test system: Hs-578T
[49] = test system: UO-31
[50] = test system: RPMI-8226
[51] = test system: OVCAR-3
[52] = test system: CAKI-1
[53] = test system: ACHN
[54] = test system: OVCAR-5
[55] = test system: EKVX
[56] = test system: SF-295
[57] = test system: NCI-H522
[58] = test system: SNB-75

In the case of `CC1(C)Cc2c(sc3[nH]c(=S)[nH]c(=S)c23)CS1`, the GI50 [1] is reported as 47 µM (inactive), the GI50 [2] is reported as 30.2 µM (inactive) and the GI50 [3] is reported as 44.5 µM (inactive). The GI50 [4] was 53.1 µM (inactive), the GI50 [5] was 40.5 µM (inactive) and the GI50 [6] was 29.4 µM (inactive). The GI50 [7] was 54.8 µM (inactive), the GI50 [8] was 33.9 µM (inactive) and the GI50 [9] was 33 µM (inactive). For the same molecule, the GI50 [10] was 95.5 µM (inactive), the GI50 [11] was 18.5 µM (inactive) and the GI50 [12] was 32.7 µM (inactive). For the same molecule, the GI50 [13] was 18.2 µM (inactive), the GI50 [14] was 40.2 µM (inactive) and the GI50 [15] was 22.4 µM (inactive). The GI50 [16] was 20.3 µM (inactive), the GI50 [17] was 90.2 µM (inactive) and the GI50 [18] was 29.9 µM (inactive). For the same molecule, the GI50 [19] was 37.9 µM (inactive), the GI50 [20] was 32.1 µM (inactive) and the GI50 [21] was 43 µM (inactive). For the same molecule, the GI50 [22] was 20.6 µM (inactive), the GI50 [23] was 29.6 µM (inactive) and the GI50 [24] was 60.8 µM (inactive). For the same molecule, the GI50 [25] was 32.8 µM (inactive), the GI50 [26] was 18.2 µM (inactive) and the GI50 [27] was > 100 µM (inactive). The GI50 [28] was 33.2 µM (inactive), the GI50 [29] was 46.3 µM (inactive) and the GI50 [30] was 45.8 µM (inactive). For the same molecule, the GI50 [31] was 38.4 µM (inactive), the GI50 [32] was 85.9 µM (inactive) and the GI50 [33] was 59.2 µM (inactive). The GI50 [34] was 43.4 µM (inactive), the GI50 [35] was 29.9 µM (inactive) and the GI50 [36] was 33.3 µM. For the same molecule, the GI50 [37] was 12.4 µM (inactive), the GI50 [38] was 88.3 µM (inactive) and the GI50 [39] was 32.8 µM (inactive). The GI50 [40] was 55.3 µM (inactive), the GI50 [41] was 25.4 µM (inactive) and the GI50 [42] was 41.9 µM (inactive). The GI50 [43] was 27.1 µM (inactive), the GI50 [44] was 27.7 µM (inactive) and the GI50 [45] was 48.6 µM (inactive). The GI50 [46] was 66.8 µM (inactive), the GI50 [47] was 29.2 µM (inactive) and the GI50 [48] was 45.2 µM (inactive). For the same molecule, the GI50 [49] was 31.8 µM (inactive), the GI50 [50] was 25.1 µM (inactive) and the GI50 [51] was 26.2 µM (inactive). The GI50 [52] was 30.5 µM (inactive).

With `O=[N+]([O-])c1ccc2nc3ccc([N+](=O)[O-])cn3c2c1` the GI50 [1] was 33.4 µM (inactive), the GI50 [2] was > 100 µM (inactive) and the GI50 [3] was > 100 µM (inactive). The GI50 [4] was > 100 µM (inactive), the GI50 [5] was 42.4 µM (inactive) and the GI50 [6] was > 100 µM (inactive). The GI50 [7] was 36.1 µM (inactive), the GI50 [8] was > 100 µM (inactive) and the GI50 [53] was > 100 µM (inactive). For the same molecule, the GI50 [9] was 20.7 µM (inactive), the GI50 [54] was 32.5 µM (inactive) and the GI50 [10] was 98.6 µM (inactive). The GI50 [11] was 86.3 µM (inactive), the GI50 [55] was 29.4 µM (inactive) and the GI50 [12] was 30.5 µM (inactive). For the same molecule, the GI50 [13] was > 100 µM (inactive), the GI50 [14] was 43.3 µM (inactive) and the GI50 [15] was > 100 µM (inactive). The GI50 [16] was > 100 µM (inactive), the GI50 [17] was 39 µM (inactive) and the GI50 [18] was 97.1 µM (inactive). For the same molecule, the GI50 [19] was 52.6 µM (inactive), the GI50 [56] was > 100 µM (inactive) and the GI50 [20] was > 100 µM (inactive). For the same molecule, the GI50 [21] was > 100 µM (inactive), the GI50 [22] was 92.5 µM (inactive) and the GI50 [23] was > 100 µM (inactive). The GI50 [24] was 48.9 µM (inactive), the GI50 [25] was 85.1 µM (inactive) and the GI50 [26] was 29.1 µM (inactive). For the same molecule, the GI50 [27] was 39.2 µM (inactive), the GI50 [28] was > 100 µM (inactive) and the GI50 [29] was > 100 µM (inactive). The GI50 [30] was > 100 µM (inactive), the GI50 [31] was > 100 µM (inactive) and the GI50 [32] was 34.4 µM (inactive). For the same molecule, the GI50 [33] was 39.1 µM (inactive), the GI50 [34] was > 100 µM (inactive) and the GI50 [35] was > 100 µM (inactive). The GI50 [36] was > 100 µM, the GI50 [37] was > 100 µM (inactive) and the GI50 [38] was 17.6 µM (inactive). The GI50 [57] was 23.7 µM (inactive), the GI50 [39] was 63.7 µM (inactive) and the GI50 [40] was > 100 µM (inactive). For the same molecule, the GI50 [41] was > 100 µM (inactive), the GI50 [42] was 36 µM (inactive) and the GI50 [58] was 43.1 µM (inactive). The GI50 [43] was 83 µM (inactive), the GI50 [44] was > 100 µM (inactive) and the GI50 [45] was > 100 µM (inactive). For the same molecule, the GI50 [46] was 33 µM (inactive), the GI50 [47] was > 100 µM (inactive) and the GI50 [48] was 27.4 µM (inactive). The GI50 [49] was 29.9 µM (inactive) and the GI50 [52] was 33 µM (inactive).
